{
  "source": "paper PMC11984586",
  "about": "“A novel spider toxin as a selective antagonist of the Kv1 subfamily of voltage-gated potassium channels through gating modulation” (The Journal of Biological Chemistry, 2025)",
  "type_in_all_cases": "cell-based",
  "key": {"hKv1.5": {"target": "T1, hKv1.5 (Homo sapiens, UniProt P22460)", "T1 construct": "expressed in transfected cells; host or cells: CHO-K1", "assay": "Whole-cell patch clamp, Kv1.5 ionic current in CHO-K1 cells", "details": "+30 mV, 500 ms, holding −80 mV, mean ± SD, n = 4–7, read-out: IC50, inhibition of Kv1.5 current (full inhibition)", "protocol": "(§1) The cDNA of hKv1.1, hKv1.2, hKv1.3, rKv1.4, hKv1.5, mKv1.6, and hKv1.7 were subcloned into mammalian expression vectors pcDNA3.1 or pCMV-blank vectors, as well as other plasmids described previously ([35]). Channel mutants were generated by site-directed mutations. Briefly, the parental channel plasmid was amplified using a pair of oppositely directed primers harboring the designed mutation site, with KOD Fx (TOYOBO Co, Ltd). The resulting PCR mix was treated with FastDigest DpnI (Thermo Fisher Scientific) to remove the methylated template. Ten microliters of the digested product was then used to transform 100 μl E. coli DH5α competent cells. […]\n(§2) CHO-K1 cells were selected for expressing Kv channels due to their lack of endogenous Kv channels, while HEK293 or ND7/23 cells were used for Nav and Cav channel expression. […] After 4 to 6 h transfection, cells were seeded onto poly-lysine–coated coverslips, and 24 to 36 h later, transfected cells were ready for patch-clamp analysis. […]\n(§3) For Kv current recordings, the bath solution contained (in mM) the following: 140 NaCl, 5 KCl, 1 MgCl2, 2 CaCl2, 10 glucose, and 10 Hepes (pH 7.3, adjusted with NaOH), and the pipette solution contained (in mM) the following: 140 KCl, 2.5 MgCl2, 11 EGTA, and 10 Hepes (pH 7.3, adjusted with KOH). […] The steady-state fast inactivation of Kv1.3 was measured using a two-pulses protocol. […]"}, "Kv1.3/Q355E": {"target": "T2, Kv1.3/Q355E (Homo sapiens, UniProt P22001, Q355E)", "T2 construct": "expressed in transfected cells; host or cells: CHO-K1", "T2 sequence (P22001 whole entry Q355E)": "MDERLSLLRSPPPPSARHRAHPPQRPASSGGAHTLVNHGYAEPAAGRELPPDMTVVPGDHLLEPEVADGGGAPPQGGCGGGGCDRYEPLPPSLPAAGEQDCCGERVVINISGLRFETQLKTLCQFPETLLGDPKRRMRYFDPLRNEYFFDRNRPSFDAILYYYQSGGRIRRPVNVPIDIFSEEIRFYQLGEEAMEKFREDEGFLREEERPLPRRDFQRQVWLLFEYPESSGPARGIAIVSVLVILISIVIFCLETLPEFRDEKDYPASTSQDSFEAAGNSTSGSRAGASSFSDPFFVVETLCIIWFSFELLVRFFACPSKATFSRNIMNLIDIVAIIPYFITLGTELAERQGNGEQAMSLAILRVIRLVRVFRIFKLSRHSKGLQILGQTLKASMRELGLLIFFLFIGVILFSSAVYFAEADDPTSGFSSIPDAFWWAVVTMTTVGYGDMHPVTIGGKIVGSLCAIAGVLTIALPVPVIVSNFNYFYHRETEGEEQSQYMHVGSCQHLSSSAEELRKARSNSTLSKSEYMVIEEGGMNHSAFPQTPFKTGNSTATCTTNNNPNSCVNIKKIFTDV", "assay": "Whole-cell patch clamp, Kv1.3 point mutant", "details": "+30 mV stimulus, mean ± SD, n = 5, read-out: IC50, Kv1.3/Q355E current", "source_text": "(§4) In contrast, differences at positions 347, 355, and 358 between Kv1.3 and Kv1.1 prompted further analysis. To explore whether these discrepancies influence peptide-mediated inhibition, we substituted these residues in Kv1.3 with their homologous counterparts in Kv1.1 and assessed the MrVIII's inhibitory efficacy on these single-point mutants. […] To further investigate this, we introduced double adjacent mutations around Q355 and M358 in Kv1.3 to explore potential synergistic effects on MrVIII's inhibitory activity.\nas §1, §2\n(§5) For Kv current recordings, the bath solution contained (in mM) the following: 140 NaCl, 5 KCl, 1 MgCl2, 2 CaCl2, 10 glucose, and 10 Hepes (pH 7.3, adjusted with NaOH), and the pipette solution contained (in mM) the following: 140 KCl, 2.5 MgCl2, 11 EGTA, and 10 Hepes (pH 7.3, adjusted with KOH). […] Whole cell conductance (G) at each depolarizing voltage (V) was determined using the equation: G = I/(V−Vrev), where I is the current amplitude, and Vrev is the reversal potential. […] The steady-state fast inactivation of Kv1.3 was measured using a two-pulses protocol. […]"}, "Kv1.3/L347I": {"target": "T3, Kv1.3/L347I (Homo sapiens, UniProt P22001, L347I)", "T3 construct": "expressed in transfected cells; host or cells: CHO-K1", "T3 sequence (P22001 whole entry L347I)": "as the sequence (P22001 whole entry Q355E) above, with L347I, E355Q counted along it", "assay": "Whole-cell patch clamp, Kv1.3 point mutant", "details": "+30 mV stimulus, mean ± SD, n = 5, read-out: IC50, Kv1.3/L347I current", "source_text": "as §4, §1, §2, §5"}, "Kv1.3/M358T": {"target": "T4, Kv1.3/M358T (Homo sapiens, UniProt P22001, M358T)", "T4 construct": "expressed in transfected cells; host or cells: CHO-K1", "T4 sequence (P22001 whole entry M358T)": "as the sequence (P22001 whole entry Q355E) above, with E355Q, M358T counted along it", "assay": "Whole-cell patch clamp, Kv1.3 point mutant", "details": "+30 mV stimulus, mean ± SD, n = 5, read-out: IC50, Kv1.3/M358T current", "source_text": "as §4, §1, §2, §5"}, "mKv1.6": {"target": "T5, mKv1.6 (Mus musculus, UniProt Q61923)", "T5 construct": "expressed in transfected cells; host or cells: CHO-K1", "T5 sequence (Q61923 whole entry)": "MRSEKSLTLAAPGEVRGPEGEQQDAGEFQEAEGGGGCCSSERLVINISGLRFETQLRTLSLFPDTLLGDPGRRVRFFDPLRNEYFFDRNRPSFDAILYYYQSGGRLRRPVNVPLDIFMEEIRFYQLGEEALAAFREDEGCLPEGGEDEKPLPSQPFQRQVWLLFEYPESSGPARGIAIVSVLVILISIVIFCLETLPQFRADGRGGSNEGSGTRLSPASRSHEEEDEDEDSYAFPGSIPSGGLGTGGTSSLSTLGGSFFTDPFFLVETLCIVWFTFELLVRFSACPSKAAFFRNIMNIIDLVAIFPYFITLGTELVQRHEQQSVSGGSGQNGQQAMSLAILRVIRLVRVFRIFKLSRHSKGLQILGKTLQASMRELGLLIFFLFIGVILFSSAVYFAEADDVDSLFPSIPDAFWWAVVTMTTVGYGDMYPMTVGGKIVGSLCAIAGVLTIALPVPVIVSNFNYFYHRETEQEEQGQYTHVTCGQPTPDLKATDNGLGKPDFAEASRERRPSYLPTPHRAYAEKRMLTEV", "assay": "Whole-cell patch clamp, Kv1.6 ionic current in CHO-K1 cells", "details": "+30 mV, 500 ms, holding −80 mV, mean ± SD, n = 4–7, read-out: IC50, inhibition of Kv1.6 current (full inhibition)", "protocol": "as §1, §2, §3"}},
  "note": "Bridge positions count the residues as written; N and C are the ends. Peptide text beside a SMILES is read from it.",
  "data": [
    {"smiles": "CC[C@H](C)[C@@H]1NC(=O)[C@H](Cc2ccc(O)cc2)NC(=O)[C@H](CCC(N)=O)NC(=O)[C@@H]2CCCN2C(=O)[C@@H]2CSSC[C@H](NC(=O)[C@H](C)NC(=O)[C@H](CO)NC(=O)[C@H](CCC(=O)O)NC(=O)[C@H](CCC(=O)O)NC(=O)[C@@H](N)[C@@H](C)O)C(=O)NCC(=O)NCC(=O)N[C@@H](Cc3ccccc3)C(=O)N[C@@H](CC(N)=O)C(=O)N[C@@H](C)C(=O)N[C@@H](CCCNC(=N)N)C(=O)N[C@H]3CSSC[C@H](NC1=O)C(=O)N[C@@H](CCCCN)C(=O)NCC(=O)N[C@@H](Cc1c[nH]c4ccccc14)C(=O)N[C@@H](CCCNC(=N)N)C(=O)N[C@@H]([C@@H](C)O)C(=O)N[C@@H](CCCCN)C(=O)N[C@@H](CCCNC(=N)N)C(=O)N[C@H](C(=O)N[C@@H](CC(C)C)C(=O)N[C@@H](CC(N)=O)C(=O)N1CCC[C@H]1C(=O)O)CSSC[C@H](NC(=O)[C@H](CCCCN)NC(=O)[C@H](Cc1c[nH]cn1)NC(=O)[C@H](CC(C)C)NC(=O)[C@@H]1CCCN1C3=O)C(=O)N2", "note": "[MrVIII] (H-TEESACGGFNARCPLHKCCPQYICKGWRTKRCLNP-OH; disulfide 6-19, 13-24, 18-32; N-terminus and C-terminus assumed)", "values": [
      {"measurement": "IC50", "setting": "hKv1.5", "result": "5.7 ± 2.2", "unit": "nM"},
      {"measurement": "IC50", "setting": "Kv1.3/Q355E", "result": "14.2 ± 7.2", "unit": "nM"},
      {"measurement": "IC50", "setting": "Kv1.3/L347I", "result": "14.2 ± 0.8", "unit": "nM"},
      {"measurement": "IC50", "setting": "Kv1.3/M358T", "result": "143 ± 33", "unit": "nM"},
      {"measurement": "IC50", "setting": "mKv1.6", "result": "13.4 ± 6.7", "unit": "nM"}
    ]}
  ]
}
